Assay results: US11318141B2, “Methods and compositions related to STK1-targeted small molecules as antibiotic resistance breakers” (Ohio State Innovation Foundation, priority 2017, dated 2022)
Converted amounts (≈) assume the structure as drawn. “And” between values parts separate entries of the source, which are not always exact repeats. Equal entries are not always repeated. Where two headings read alike, the source gives them in different places.

How the values were obtained:
S. aureus MW2 wild-type [1] = experiment: Serial passage at suboptimal dose (10 generations), stk1 PCR and DNA sequencing; type: cell-based, Staphylococcus aureus; conditions: in the presence of 50 μM Inh2-B1
Procedure: (§1) Since the STK1 is not essential for bacterial survival and its absence results in retardation of growth, an end-point bactericidal assay was done, employing the Checkerboard titration method followed by a time-to-kill assay using the broth dilution method. The 96-well plate-based checkerboard titration assays were performed using the fixed number of CFUs of MW2 strain, and the survival of the bacteria was measured on solid agar plates as an end-point result. […] The cut-off value to designate clinical isolates of S. aureus for antibiotics, including Ceftriaxone (TX) and Cefotaxime (CT) as susceptible, is less than 4 μg/ml (i.e., <4.8 μM of TX, and <7 μM of CT). […] CFU counts of MW2-WT grown in the presence of various concentrations of Inh2-B1 were examined over a period of 16 h. […] Similarly, it was also determined CFU counts of MW2-WT and MW2ΔSTK1 strains each grown in the absence or the presence of 50 μM of Inh2-B1 and 1.5 μM Ceftriaxone (1 μg/ml) or […] Cefotaxime (1 μg/ml) for 16 h employing the broth dilution method. […] Further, to address whether MW2 or STK1 could become refractory to a potential combined therapy, the S. aureus MW2 wild-type strain was grown in the presence of suboptimal dose of Inh2-B1 alone and combination with Ceftriaxone and Cefotaxime (25 μM Inh2-B1 and 3 μM of Ceftriaxone or 3 μM Cefotaxime) for consecutive 10 generations.

S. aureus MW2-WT [2] = experiment: Time-to-kill assay (OD and CFU counts over 16 h), broth dilution; type: cell-based, Staphylococcus aureus; conditions: only 50 μM Inh2-B1, only 1.5 μM Ceftriaxone (1 μg/ml) or only 3 μM Cefotaxime (1 μg/ml), 16 h
Procedure: (§2) FIGS. 4A-F show. […] Optical Density and corresponding Colony forming units of (C and D) MW2-WT and (E and F) MW2ΔSTK1 cultures in the presence or absence 50 μM Inh2-B1, 1.51 μM (1 μg/ml) Ceftriaxone, 2.125 μM (1 μg/ml) Cefotaxime, and combination of Inh2-B1 plus Ceftriaxone, and Inh2-B1 plus Cefotaxime. The experiments were carried out as described in the Materials and Method section using Muller-Hinton broth and seeded with 4×10^6 CFUs of S. aureus MW2-Wild type or MW2ΔSTK1 strains per well. Each data points represent Mean±S.D. P values of significance (**=<0.01, ***=<0.001) were determined using the t-test with Welch's corrections. NS—Not significant.
(§3) Subsequently, the susceptibility of S. aureus MW2 strain to Ceftriaxone, Cefotaxime, Inh2, and Inh2-B1 was confirmed by the CLSI recommended serial dilution method using Muller Hinton broth. Minimum bactericidal activity (MBC) was measured using Muller-Hinton agar. Changes in the MBC of Ceftriaxone/Cefotaxime in the presence of serially diluted Inh2-B1 was determined in two steps. Initial screening was carried out using the Checkerboard method using Muller-Hinton agar (FIG. 15). […] Subsequent time to kill assays were carried out using 50 μM Inh2-B1 and Ceftriaxone. Cefotaxime (1 μg/ml) in a final volume of 250 μl using a sterile 96-well (U-bottom) microtiter plate over a period of 16 h at 37° C. under constant rotation (120 rpm). Optical density and corresponding CFU counts were measured at every two-hour interval up to 8 hours with a final overnight reading at the end of incubation period. CFU counts were measured using appropriate dilution of 10 μl of properly mixed samples at each time interval. All experiments were performed in three biological replicates and the statistical analysis of the results obtained at each time point was carried out by the non-parametric t-test with Welch's correction using GraphPad Prism 6 software.

S. aureus MW2ΔSTK1 = experiment: as above; type: cell-based, Staphylococcus aureus; conditions: in the presence of Ceftriaxone (1 μg/ml)
Procedure: as §2, §3

[3] = tested on: S. aureus MW2ΔSTK1 mutant; experiment: E-test antibiotic susceptibility (MIC), Muller-Hinton agar; type: cell-based; conditions: Staphylococcus aureus
S. aureus MW2-WT [4] = experiment: microbe, parasite or virus in culture; type: cell-based, Staphylococcus aureus; conditions: Staphylococcus aureus, MW2WT
[5] = tested on: S. aureus MW2ΔSTP1 mutant; experiment: E-test antibiotic susceptibility (MIC), Muller-Hinton agar; type: cell-based; conditions: Staphylococcus aureus
S. aureus MW2 wild-type [6] = experiment: Checkerboard titration end-point bactericidal assay (MBC), Muller-Hinton agar; type: cell-based, Staphylococcus aureus; conditions: for MBC: Staphylococcus aureus, MW2WILDTYPE
Procedure: FIGS. 15A-15B show checkerboard assays for determining bactericidal assay. Serial two-fold dilutions of 2 mM of Inh2-B1 (MW=411.58 g/mol) and (A) 3 mM ceftriaxone (MW=669.7 g/mol) were made in two separate 96-well plates in vertical (B1-B12 to H1-H2 wells) and horizontal (A2-H2 to A12-H12 wells) directions respectively. Serially diluted Inh2-B1 (100 μL) in the individual well was then mixed with the 100 μL serially diluted ceftriaxone present in the corresponding wells. The resulting various combinations of Inh2-B1 (starting from 1 mM) and ceftriaxone (starting from 1.5 mM) or cefotaxime (2.1 mM) as well as serially diluted one Inh2-B1 (B1 to H1) and ceftriaxone (A2-A12) or cefotaxime (A2-A12) were then incorporated in Muller-Hinton mini agar plates (2 mL). The agar plates were then seeded and diluted S. aureus MW2-wild-type culture equivalent to approximately 23±3 CFU. This checkerboard assay was used to determine the ideal combination of lowest concentration of Inh2-B1 and ceftriaxone that kills 99.9% of the wild-type MW2.
as §1
as §3, with “interval.” for “interval. All experiments were performed in three biological replicates and the statistical analysis of the results obtained at each time point was carried out by the non-parametric t-test with Welch's correction using GraphPad Prism 6 software.”

`CO/N=C(\C(=O)N[C@@H]1C(=O)N2C(C(=O)O)=C(CSc3nc(=O)c(=O)[nH]n3C)CS[C@H]12)c1csc(N)n1` [Ceftriaxone] was tested, and the “bactericidal activity against the passaged strain” value (S. aureus MW2 wild-type [1]) was “remained intact”, the “growth pattern of the wild-type, single agent” value (S. aureus MW2-WT [2]) was “remained unaltered” and the “growth of MW2ΔSTK1” value (S. aureus MW2ΔSTK1) was “reduced significantly”. The MIC [3] was 4 µg/mL (≈ 7.21 µM), the MIC (S. aureus MW2-WT [4]) was over 100 µg/mL and the MIC [5] was over 100 µg/mL. The MBC (S. aureus MW2 wild-type [6]; agent alone, MW2, read-out: Minimum bactericidal concentration (MBC)) was 151 µM and 100 µg/mL, the MBC (S. aureus MW2 wild-type [6]; in the presence of 50 μM of Inh2-B1, read-out: MBC for MW2 in the presence of Inh2-B1) was 0.59 µM and 0.39 µg/mL and the “concentration up to which growth of MW2 was seen” value (S. aureus MW2 wild-type [6]; agent alone, further analysis) was 125 µM. For the same compound, the “concentration of wells with ≥1 CFU of wild-type MW2” value (S. aureus MW2 wild-type [6]; checkerboard, agent alone) was at most 75.00 µM and the “fold reduction of MBC” value (S. aureus MW2 wild-type [6]; in the presence of 50 μM of Inh2-B1 vs antibiotic alone) was 256 fold.
